Tests used:
Format in all cases: binding
[1] = target: T1, PilB (CtPilB), type IV pilus assembly ATPase (Chloracidobacterium thermophilum, UniProt G2LDI3); test: competitive displacement of fluorescent MANT-ATP
T1 construct: gene Cabther_A1696

[2] = target: T1, PilB (CtPilB), type IV pilus assembly ATPase; test: fluorescence enhancement titration of MANT-ATP with CtPilB
[3] = target: T1, PilB (CtPilB), type IV pilus assembly ATPase; test: competitive displacement of fluorescent MANT-ATP (IC50 […])

T1 sequence (G2LDI3 entry or part of it): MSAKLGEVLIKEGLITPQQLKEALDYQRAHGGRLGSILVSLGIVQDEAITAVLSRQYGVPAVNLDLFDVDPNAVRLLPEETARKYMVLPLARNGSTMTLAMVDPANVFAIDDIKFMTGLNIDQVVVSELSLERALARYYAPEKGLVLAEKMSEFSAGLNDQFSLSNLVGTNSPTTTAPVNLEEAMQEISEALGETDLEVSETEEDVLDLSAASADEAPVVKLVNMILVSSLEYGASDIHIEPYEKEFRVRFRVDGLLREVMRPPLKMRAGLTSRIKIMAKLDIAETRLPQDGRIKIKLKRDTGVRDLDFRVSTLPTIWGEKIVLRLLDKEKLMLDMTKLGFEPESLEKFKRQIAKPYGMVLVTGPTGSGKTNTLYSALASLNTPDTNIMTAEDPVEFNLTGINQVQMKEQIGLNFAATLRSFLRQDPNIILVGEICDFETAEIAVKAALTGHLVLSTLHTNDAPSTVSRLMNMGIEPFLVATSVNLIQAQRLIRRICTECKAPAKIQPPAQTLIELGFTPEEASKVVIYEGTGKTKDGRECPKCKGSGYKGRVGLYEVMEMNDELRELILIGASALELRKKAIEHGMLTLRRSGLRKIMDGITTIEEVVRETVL

Question: Which IC50 [1] does the source give for `Nc1ncnc2c1ncn2[C@@H]1O[C@H](COP(=O)(O)OP(=O)(O)O)[C@@H](O)[C@H]1O` [ADP] here?
Answer: 3070 nM

Question: For `CNc1ccccc1C(=O)O[C@H]1[C@@H](O)[C@H](n2cnc3c(N)ncnc32)O[C@@H]1CO[P@@](=O)(O)O[P@](=O)(O)OP(=O)(O)O` [MANT-ATP], which Kd [2] is on record?
Answer: 290 ± 10 nM

Question: For `Nc1ncnc2c1ncn2[C@@H]1O[C@H](COP(=O)(O)OP(=O)(O)OP(=O)(O)O)[C@@H](O)[C@H]1O` [ATP], which Ki [3] is on record?
Answer: 2200 nM

Reference: PMC8546689, “High-Throughput Screen for Inhibitors of the Type IV Pilus Assembly ATPase PilB” (mSphere, 2021)
